Read-outs that look alike come from different tables or passages of the source.
Assay: TD Phase (Groups 1 and 3): plasma and ocular tissue concentrations and pharmacokinetics of Compound 18 and its metabolite Compound 4 after once daily ocular instillation of Compound 18 nanosuspension for 7 days
Assay type: in vivo, New Zealand white rabbits
Conditions: for Cmax / Tmax / half-life / AUC(0-t): topical or ocular; for AUC(0-t): read-out: AUC0-8; for Metabolite/parent AUC ratio (Compound 4 vs Compound 18): TD phase
From the text: This example illustrates the procedures and results for the levels of Compound 18 and its metabolite Compound 4 in plasma and ocular tissues of normotensive rabbits following ocular instillation of Compound 18 once daily for 7 consecutive days.
Twenty five (25) male New Zealand white rabbits were divided into 5 groups of varying amounts of animals per group.
The Test article, Compound 18 was formulated as a 2% nanosuspension in DI water containing 0.2% PS80 (polyoxyethylenesorbitan, monooleate (Tween 80)) and 0.4% HPMC (hydroxypropylmethylcellulose) at pH 6.77. Referred to herein as “Compound 18 nanosuspension.”
The study consisted of three groups (Groups 1-3) of 19 male rabbits (NZW) that underwent once daily morning ocular installation (1 eyedrop) for 7 consecutive days (Day 0-6). Groups 4-5 each consisted of 3 male rabbits (NZW) that were not dosed.
Blood samples (1 mL) were collected from the jugular vein at the intervals set out below for each group. The samples were then inverted several times following collection and held on wet ice until centrifuged. Samples were centrifuged within 60 minutes of collection under refrigeration (set at 5° C. for 10 minutes at 2000 g.
Group 1 (Pilot Study, terminal blood collection): blood was collected from 3 animals at 1 hour post day 7 dose of Compound 18 nanosuspension.
Group 3 (TD Phase, terminal blood collection): blood was collected from 3 animals at 0.5 hour, 3 animals at 2 hours, 3 animals at 4 hours, and 3 animals at 8 hours post day 7 dose of Compound 18 nanosuspension.
Group 1 (Pilot Study): 3 animals were terminated at 1 hour post Day 7 dose of Compound 18 nanosuspension. Following blood collection and termination, ocular tissues (aqueous humor, vitreous humor, cornea, iris/ciliary body, lens, optic nerve, retina, sclera/choroid, and trabecular meshwork) were collected from each animal and the tissue weights were recorded. Note: sclera and choroid were collected together. Iris and ciliary body were collected together.
Group 3 (TD Phase): 3 animals were terminated at 0.5 hour, 3 animals at 2 hours, 3 animals at 4 hours, and 3 animals at 8 hours post Day 7 dose of Compound 18 nanosuspension. Following blood collection and termination, ocular tissues (aqueous humor, vitreous humor, cornea, iris/ciliary body, lens, optic nerve, retina, sclera/choroid, and trabecular meshwork) were collected from each animal and the tissue weights were recorded. Note: sclera and choroid were collected together. Iris and ciliary body were collected together.
Plasma and tissue samples from treated animals (Groups 1-3) were analyzed for Compound 18 and its metabolite Compound 4 concentrations by LC-MS/MS.
Pharmacokinetic analysis was conducted using WinNonlin Version 6.2.1 (Pharsight, Mountain View, Calif.), operating as a validated software system. Noncompartmental analysis was conducted using the extravascular administration model for ocular instillation dosing.
The peak plasma and ocular tissue concentration, time to achieve peak plasma and ocular tissue concentration, half-life, and area under the plasma and ocular tissue concentration-time curve (Cmax, Tmax, T1/2, and AUC) were calculated from the TD phase combined with the pilot study mean animal plasma and ocular tissue concentrations for each sampling time/dose group for Compound 18 and its metabolite Compound 4.
BA Assay: Quantitation Range 0.05 to 100 ng/mL for Compound 18, 0.15 to 100 ng/mL for Compound 4.
3. Pipet 50 μL of each type of pre-spiked ocular tissue samples (AH/VH) for QC samples, 50 μL of incurred aqueous humor, and vitreous humor sample (if applicable) into a 96 well plate.
Ocular Tissues Homogenate Preparation: Incurred rabbit ocular tissues were weighed in Genogrinder tubes (plastic tubes with small beads) at the time of removal from the animal and stored frozen (<−70° C.) until analysis. The rabbit incurred ocular tissues were thawed on wet ice. […]

[1] = male, New Zealand white, rabbit, 0.8 mg/kg/day, optic nerve, Day 7, from mean concentrations
[2] = male, New Zealand white, rabbit, 0.8 mg/kg/day, plasma, Day 7, from mean concentrations
[3] = male, New Zealand white, rabbit, 0.8 mg/kg/day, retina, Day 7, from mean concentrations
[4] = male, New Zealand white, rabbit, 0.8 mg/kg/day, sclera/choroid, Day 7, from mean concentrations
[5] = male, New Zealand white, rabbit, 0.8 mg/kg/day, trabecular meshwork, Day 7, from mean concentrations
[6] = male, New Zealand white, rabbit, 0.8 mg/kg/day, vitreous humor, Day 7, from mean concentrations
[7] = male, New Zealand white, rabbit, Aqueous Humor, Day 7, Compound 18 0.8 mg/kg ocular instillation once daily, Groups 1 and 3
[8] = male, New Zealand white, rabbit, Cornea, Day 7, Compound 18 0.8 mg/kg ocular instillation once daily, Groups 1 and 3
[9] = male, New Zealand white, rabbit, Iris/Ciliary Body, Day 7, Compound 18 0.8 mg/kg ocular instillation once daily, Groups 1 and 3
[10] = male, New Zealand white, rabbit, Lens, Day 7, Compound 18 0.8 mg/kg ocular instillation once daily, Groups 1 and 3
[11] = male, New Zealand white, rabbit, Optic Nerve, Day 7, Compound 18 0.8 mg/kg ocular instillation once daily, Groups 1 and 3
[12] = male, New Zealand white, rabbit, Plasma, Day 7, Compound 18 0.8 mg/kg ocular instillation once daily, Groups 1 and 3
[13] = male, New Zealand white, rabbit, Retina, Day 7, Compound 18 0.8 mg/kg ocular instillation once daily, Groups 1 and 3
[14] = male, New Zealand white, rabbit, Sclera/Choroid, Day 7, Compound 18 0.8 mg/kg ocular instillation once daily, Groups 1 and 3
[15] = male, New Zealand white, rabbit, Trabecular Meshwork, Day 7, Compound 18 0.8 mg/kg ocular instillation once daily, Groups 1 and 3
[16] = male, New Zealand white, rabbit, Vitreous Humor, Day 7, Compound 18 0.8 mg/kg ocular instillation once daily, Groups 1 and 3

CCCc1nn(C)c2c(=O)[nH]c(-c3cc(S(=O)(=O)N4CC(CCCO)C4)ccc3OCC)nc12 [Compound 4, 5-(2-ethoxy-5-((3-(3-hydroxypropyl)azetidin-1-yl)sulfonyl)phenyl)-1-methyl-3-propyl-1,6-dihydro-7H-pyrazolo[4,3-d]pyrimidin-7-one]
Cmax [1]: 40.2 ng/g
Tmax [1]: 1 h
half-life [1]: 2.93 h
Cmax [2]: 1.02 ng/mL
Tmax [2]: 0.5 h
half-life [2]: 0.958 h
AUC(0-t) [2]: 1.57 ng·h/mL
Cmax [3]: 50.9 ng/g
Tmax [3]: 2 h
half-life [3]: 1.93 h
Cmax [4]: 303 ng/g
Tmax [4]: 4 h
half-life [4]: 1.74 h
Cmax [5]: 204 ng/g
Tmax [5]: 1 h
half-life [5]: 2.2 h
Cmax [6]: 2.32 ng/mL
Tmax [6]: 1 h
half-life [6]: 1.72 h
AUC(0-t) [6]: 9.9 ng·h/mL
Cmax [7]: 124 ng/mL
Tmax [7]: 1 h
half-life [7]: 1.95 h
AUC(0-t) [7]: 314 ng·h/mL
Cmax [8]: 3600 ng/g
Tmax [8]: 1 h
half-life [8]: 2.63 h
Cmax [9]: 980 ng/g
Tmax [9]: 1 h
half-life [9]: 2.11 h
Cmax [10]: 18.1 ng/g
Tmax [10]: 1 h
half-life [10]: 2.25 h
Cmax [11]: 40.2 ng/g
Tmax [11]: 1 h
half-life [11]: 2.93 h
Cmax [12]: 1.02 ng/mL
Tmax [12]: 0.5 h
half-life [12]: 0.958 h
AUC(0-t) [12]: 1.57 ng·h/mL
Cmax [13]: 50.9 ng/g
Tmax [13]: 2 h
half-life [13]: 1.93 h
Cmax [14]: 303 ng/g
Tmax [14]: 4 h
half-life [14]: 1.74 h
Cmax [15]: 204 ng/g
Tmax [15]: 1 h
half-life [15]: 2.2 h
Cmax [16]: 2.32 ng/mL
Tmax [16]: 1 h
half-life [16]: 1.72 h
AUC(0-t) [16]: 9.9 ng·h/mL
concentration at 8 h (male, New Zealand white, rabbit, trabecular meshwork, other: ocular instillation, 0.8 mg/kg/day, TD Phase, Group 3, 8 h, Mean, read-out: Final Compound 4 Trabecular Meshwork Conc.): 13.9 ng/g
AUC0-8 (optic nerve, Day 7, from mean concentrations): 159 ng·h/g
Metabolite/parent AUC ratio (Compound 4 vs Compound 18) (optic nerve): 0.133
AUC0-8 (retina, Day 7, from mean concentrations): 213 ng·h/g
Metabolite/parent AUC ratio (Compound 4 vs Compound 18) (retina): 1.34
AUC0-8 (sclera/choroid, Day 7, from mean concentrations): 1494 ng·h/g
Metabolite/parent AUC ratio (Compound 4 vs Compound 18) (sclera/choroid): 1.32
AUC0-8 (trabecular meshwork, Day 7, from mean concentrations): 533 ng·h/g
Metabolite/parent AUC ratio (Compound 4 vs Compound 18) (trabecular meshwork): 18.0

Source: patent US20220153746A1, “NITROGEN OXIDE-DONATING PDE-5 AND/OR PDE-6 INHIBITOR COMPOUNDS, AND USES THEREOF” (ILDONG PHARMACEUTICAL CO., LTD., priority 2020, published 2022)
